By Ki is commonly meant the equilibrium dissociation constant of an inhibitor or competing ligand from its target. Low values mean tighter binding, high ones weaker binding.

Each structure is given as a SMILES string. Calls of active or inactive are those of the source. The calls are words filed in the database; no cut-off is given here. Non-standard residues stand in square brackets, D forms with d. Residues, ends and D or L forms follow the SMILES beside them. *: point of attachment. 1Nal = N[C@@H](Cc1cccc2ccccc12)C(=O)O; Cbz = O=C(OCc1ccccc1)*; NHBn = c1ccc(CN*)cc1; OBn = c1ccc(CO*)cc1; azaGly = NNC(=O)O

In one test the target is T1, Papain (Carica papaya, UniProt P00784).
T1 sequence (P00784 whole entry): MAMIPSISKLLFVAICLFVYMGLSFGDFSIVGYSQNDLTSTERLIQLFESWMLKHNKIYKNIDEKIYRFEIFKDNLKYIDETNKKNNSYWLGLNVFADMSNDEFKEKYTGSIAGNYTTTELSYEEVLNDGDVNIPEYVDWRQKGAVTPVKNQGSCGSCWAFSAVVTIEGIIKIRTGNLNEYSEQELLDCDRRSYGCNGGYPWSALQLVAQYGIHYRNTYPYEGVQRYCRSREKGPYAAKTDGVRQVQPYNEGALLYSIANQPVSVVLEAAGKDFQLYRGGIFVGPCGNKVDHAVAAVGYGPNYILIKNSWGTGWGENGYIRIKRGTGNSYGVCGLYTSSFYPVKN
Nature of the test: In vitro inhibition of papain.

The target of a further test is T2, Cathepsin K (Homo sapiens, UniProt P43235).
T2 sequence (P43235 whole entry): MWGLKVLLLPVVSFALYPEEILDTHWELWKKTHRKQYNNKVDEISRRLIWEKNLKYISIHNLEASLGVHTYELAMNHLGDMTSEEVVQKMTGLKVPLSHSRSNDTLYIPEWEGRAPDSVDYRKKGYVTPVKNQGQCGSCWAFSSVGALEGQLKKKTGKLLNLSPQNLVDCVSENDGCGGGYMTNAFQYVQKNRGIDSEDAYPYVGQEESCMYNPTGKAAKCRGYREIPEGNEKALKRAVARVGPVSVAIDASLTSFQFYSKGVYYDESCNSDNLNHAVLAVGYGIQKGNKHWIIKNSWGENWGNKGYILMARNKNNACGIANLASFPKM
Description: Inhibition of Human Cathepsin K.

A further test concerns the target T3, Papain (Carica papaya) (UniProt P00784).
T3 sequence (whole entry): T1 sequence (P00784 whole entry)
Nature of the test: Evaluated for inhibitory activity against papain; No inhibition.

The target of another test is Cathepsin B (Homo sapiens, UniProt P07858). Description: Inhibition of Human Cathepsin B.

`COC(=O)[C@@H](NC(=O)NNC(=O)[C@H](Cc1ccccc1)NC(C)=O)C(C)C` registered a Ki at Papain of 61 nM.

At Papain, `CCCCOC(=O)[C@@H](NC(=O)NNC(=O)[C@H](Cc1ccccc1)NC(C)=O)C(C)C` came in with a Ki of 59 nM.

As for `CC(=O)N[C@@H](Cc1ccccc1)C(=O)NNC(=O)N[C@H](C(=O)NCc1ccccc1)C(C)C`, the inhibition constant (Ki) at Papain came to 30 nM.

For `CCCCNC(=O)[C@@H](NC(=O)NNC(=O)[C@H](Cc1ccccc1)NC(C)=O)C(C)C`, on Papain, the affinity corresponds to a Ki of 28 nM.

On to `CC(=O)N[C@@H](Cc1ccccc1)C(=O)NNC(=O)N[C@H](C(=O)OCc1ccccc1)C(C)C`, for which affinity at Papain was put at a Ki of 21 nM.

Turning to `CCOC(=O)[C@@H](NC(=O)NNC(=O)[C@H](Cc1ccccc1)NC(C)=O)C(C)C`, the affinity at Papain corresponds to a Ki of 20 nM.

In turn, `CNC(=O)[C@@H](NC(=O)NNC(=O)[C@H](Cc1ccccc1)NC(C)=O)C(C)C` showed a Ki on Papain of 32 nM.

For `CCOC(=O)NNC(=O)[C@@H](NC(=O)[C@H](CC(C)C)NC(=O)OC(C)(C)C)C(C)C`, the Ki worked out at 24 nM at Papain and 61 nM at Cathepsin K.

As to `CC(=O)N[C@@H](Cc1ccccc1)C(=O)NNC(=O)N[C@H](C(=O)O)C(C)C`, the NA entry at Papain (Carica papaya) was “inactive”.

Regarding `CC(C)C(NC(=O)NNC(=O)OC(C)(C)C)C(=O)OCc1ccccc1` (stereo not given), the NI entry at Papain (Carica papaya) is “inactive”.

For the compound `CC[C@H](C)[C@H](NC(=O)NNC(=O)[C@H](Cc1ccccc1)NC(=O)[C@H](CC(C)C)NC(=O)[C@H](C)NC(=O)OCc1ccccc1)C(=O)N[C@H](C(=O)OC)C(C)C` (Cbz-ALF[azaGly]IV-OMe), the Ki at Cathepsin B amounted to 0.13 nM; on Papain, 0.12 nM; at Cathepsin K, 0.18 nM.

`CC[C@H](C)[C@H](NC(=O)NNC(=O)[C@H](Cc1cnc[nH]1)NC(=O)[C@H](CC(C)C)NC(=O)[C@H](C)NC(=O)OCc1ccccc1)C(=O)N[C@H](C(=O)OC)C(C)C` (Cbz-ALH[azaGly]IV-OMe): the figures for the Ki at Cathepsin B, at Papain and on Cathepsin K were 0.03 nM, 0.58 nM and 0.86 nM, respectively.

As for `CC[C@H](C)[C@H](NC(=O)NNC(=O)[C@@H](NC(=O)[C@H](CC(C)C)NC(=O)[C@H](C)NC(=O)OCc1ccccc1)[C@@H](C)CC)C(=O)N[C@H](C(=O)NCc1ccccc1)C(C)C` (Cbz-ALI[azaGly]IV-NHBn), the Ki at Cathepsin B turned out to be 0.25 nM; on Papain it was 1.35 nM; at Cathepsin K, 2.45 nM.

Take `CC[C@H](C)[C@H](NC(=O)NNC(=O)[C@@H](NC(=O)[C@H](CC(C)C)NC(=O)[C@H](C)NC(=O)OCc1ccccc1)[C@@H](C)CC)C(=O)N[C@H](C(=O)OC)C(C)C` (Cbz-ALI[azaGly]IV-OMe): the Ki at Cathepsin B was 0.3 nM; on Papain, 0.95 nM; at Cathepsin K, 2.12 nM.

Regarding `CC[C@H](C)[C@H](NC(=O)NNC(=O)[C@H](Cc1ccc(OC)cc1)NC(=O)[C@H](CC(C)C)NC(=O)[C@H](C)NC(=O)OCc1ccccc1)C(=O)N[C@H](C(=O)OC)C(C)C` (Cbz-ALY(Me)[azaGly]IV-OMe), the results for the inhibition constant (Ki) on Cathepsin B, at Papain and on Cathepsin K were 1.41 nM, 0.28 nM and 8.42 nM, respectively.

Regarding `CC[C@H](C)[C@H](NC(=O)NNC(=O)[C@H](Cc1cccc2ccccc12)NC(=O)[C@H](CC(C)C)NC(=O)[C@H](C)NC(=O)OCc1ccccc1)C(=O)N[C@H](C(=O)OC)C(C)C` (Cbz-AL[1Nal][azaGly]IV-OMe), the values for the inhibition constant (Ki) on Cathepsin B, at Papain and at Cathepsin K were 1.58 nM, 0.1 nM and 5.75 nM, respectively.

As for `CC(C)C[C@H](NC(=O)OCc1ccccc1)C(=O)N[C@@H](Cc1ccccc1)C(=O)NNC(=O)N[C@H](C(=O)OCc1ccccc1)C(C)C` (Cbz-LF[azaGly]V-OBn), on Papain (Carica papaya), the NI entry is “inactive”.

Consider `CC(C)C[C@H](NC(=O)OCc1ccccc1)C(=O)N[C@H](C(=O)NNC(=O)N[C@H](C(=O)OCc1ccccc1)C(C)C)C(C)C` (Cbz-LV[azaGly]V-OBn), for which the Ki on Cathepsin B is 40 nM; on Papain, 6.7 nM; on Cathepsin K, 34 nM.

Turning to `CC(C)C[C@H](NC(=O)[C@H](CCCN=C(N)N)NC(=O)OCc1ccccc1)C(=O)N[C@@H](Cc1ccccc1)C(=O)NNC(=O)N[C@H](C(=O)OCc1ccccc1)C(C)C` (Cbz-RLF[azaGly]V-OBn), the NI result on Papain (Carica papaya) was “inactive”.

`CC[C@H](C)[C@H](NC(=O)NNC(=O)[C@@H](NC(=O)[C@H](CC(C)C)NC(=O)[C@H](CCCN=C(N)N)NC(=O)OCc1ccccc1)C(C)C)C(=O)N[C@H](C(=O)OC)C(C)C` (Cbz-RLV[azaGly]IV-OMe): the inhibition constant Ki at Cathepsin B is 0.088 nM; at Papain, 0.77 nM; at Cathepsin K, 21 nM.

On to `CC(C)C[C@H](N)C(=O)N[C@H](C(=O)NNC(=O)N[C@H](C(=O)OCc1ccccc1)C(C)C)C(C)C` (HELM PEPTIDE1{L.V.[O=C(NN[*:1])[*:2]].V.[c1ccc(CO[*:1])cc1]}$$$$V2.0), for which the NI entry at Papain (Carica papaya) is “inactive”.

In the case of `CC(C)C[C@H](NC(=O)[C@H](CCCNC(=N)N)NC(=O)OCc1ccccc1)C(=O)N[C@H](C(=O)NNC(=O)N[C@@H](C)C(=O)NCC(N)=O)C(C)C` (HELM PEPTIDE1{[O=C(OCc1ccccc1)[*:2]].R.L.V.[O=C(NN[*:1])[*:2]].A.G.[am]}$$$$V2.0), the Ki at Cathepsin B turned out to be 7.29 nM; on Papain it was 0.78 nM; at Cathepsin K, 6.76 nM.

As for `CC[C@H](C)[C@H](NC(=O)NNC(=O)[C@@H](NC(=O)[C@H](CC(C)C)NC(=O)[C@H](CCCN=C(N)N)NC(=O)OCc1ccccc1)C(C)C)C(=O)N[C@H](C(=O)N[C@@H](Cc1c[nH]c2ccccc12)C(N)=O)C(C)C` (HELM PEPTIDE1{[O=C(OCc1ccccc1)[*:2]].R.L.V.[O=C(NN[*:1])[*:2]].I.V.W.[am]}$$$$V2.0), the Ki came to 13 nM on Cathepsin B, 17 nM on Papain and 72 nM at Cathepsin K.

`CC(C)C[C@H](NC(=O)[C@H](CCCNC(=N)N)NC(=O)OCc1ccccc1)C(=O)N[C@H](C(=O)NNC(=O)N[C@H](C(=O)N[C@@H](C)C(N)=O)C(C)C)C(C)C` (HELM PEPTIDE1{[O=C(OCc1ccccc1)[*:2]].R.L.V.[O=C(NN[*:1])[*:2]].V.A.[am]}$$$$V2.0): the inhibition constant Ki stood at 0.12 nM on Cathepsin B, 0.56 nM on Papain and 2.13 nM on Cathepsin K.

As for `CC(C)C[C@H](NC(=O)[C@H](CCCNC(=N)N)NC(=O)OCc1ccccc1)C(=O)N[C@H](C(=O)NNC(=O)N[C@@H](Cc1c[nH]c2ccccc12)C(=O)N[C@H](C(=O)N[C@@H](C)C(N)=O)C(C)C)C(C)C` (HELM PEPTIDE1{[O=C(OCc1ccccc1)[*:2]].R.L.V.[O=C(NN[*:1])[*:2]].W.V.A.[am]}$$$$V2.0), the figures for the Ki at Cathepsin B, at Papain and on Cathepsin K were 43 nM, 100 nM and 100 nM, respectively.

The values above are taken from ChEMBL document CHEMBL1136001, “Azapeptides structurally based upon inhibitory sites of cystatins as potent and selective inhibitors of cysteine proteases” (J Med Chem, 2002).
